“And” between values parts separate entries of the source, which are not always exact repeats. Equal entries are not always repeated.
What was measured:
[1] = system: Adriamycin (ADR)-induced nephropathy in Balb/c mice; experiment: Adriamycin-induced nephropathy, dose-finding pilot study: ACR and body weight time course; details: ADR, 10 mg/Kg/day, individual mice, 10 mg/kg/day
[2] = system: Adriamycin (ADR)-induced nephropathy in Balb/c mice; experiment: ADR nephropathy: kidney cortex lipids (cholesterol ester, total cholesterol, triglycerides, Oil-red O); type: in vivo, mouse
Experimental: OCT embedded kidney cortex samples were cryosectioned at 4 μm thickness and stained with Oil-Red O-isopropanol solution (Electron Microscopy Science, PA) diluted 6:4 in water, and then counterstained with Hematoxylin Harris Hg Free (VWR, PA). Sections were then evaluated using a light microscope (Olympus BX 41, Tokyo, Japan).
Snap frozen kidney cortex samples were homogenized in 2 mM potassium phosphate buffer, pH 7, (10 µl buffer/mg tissue) using a glass douncer on ice. 100 μl of the homogenate were mixed thoroughly with 1 ml of hexane:isopropanol (3:2;v:v) per volume of tissue homogenate. The aqueous (pellet) and organic (supernatant) phases were separated by centrifugation at 12,000 × g for 5 min. Pellets (aqueous phase) were dried, reconstituted in 8 M urea, 0.1% SDS, 0.1 M NaOH, and total proteins were quantified by the BCA method (Thermofisher). The organic phase was dried by exposure to nitrogen. Lipids were then reconstituted in 100 µl isopropanol:NP-40 (9:1;v:v). Triglyceride content was assayed using a colorimetric kit according to the manufacturer’s instructions (Cayman Chemical USA). Total cholesterol and CE content were assayed using an enzymatic fluorometric method. For total cholesterol measurement, extracts were diluted 1:100 in assay buffer (100 mM potassium phosphate, 50 mM NaCl, 5 mM cholic acid, 0.1% Triton […], pH 7.4) containing cholesterol oxidase (1 U/ml), cholesterol esterase (1 U/ml), horseradish peroxidase (1 U/ml), and Amplex Red (75 µM). The reactions were incubated at 37 °C for 30 min in a black opaque 96-well plate (Greiner) and fluorescence was measured in a microplate reader (Spectramax i3X, Molecular Devices) at 530 nm excitation and 580 emission.
For CE determination, 150 µl of the assay buffer described above, supplemented with bovine liver catalase (45 U/ml) and cholesterol oxidase (1 U/ml), was added to 25 μl of sample and incubated overnight at 37 °C to deplete free cholesterol leaving only cholesterol esters. Then, 75 µl of cholesterol ester detection reagent (1 U/ml cholesterol oxidase, 4 U/ml cholesterol esterase, 24 U/ml horseradish peroxidase, 300 µM Amplex Red) was added. The reaction was incubated at 37 °C for 30 min and the fluorescence signal was measured as described above. Internal standards included samples containing 1 mM of cholesterol and 5 μM of cholesterol oleate in order to verify the completeness of the enzymatic decomposition of free cholesterol as well as assay sensitivity and specificity.

[3] = system: Adriamycin (ADR)-induced nephropathy in Balb/c mice; experiment: ADR nephropathy: blood urea nitrogen (BUN) and serum creatinine; type: in vivo, mouse; details: 28 days treatment
Excerpt: Supplement 41467_2021_24890_MOESM5_ESM.xlsx, sheet "Supplementary Table 4" | column: ADR+ Cpd A; ADR+ Cpd G; ADR+ Cpd C

human podocytes = experiment: apoAI-mediated cholesterol efflux in human podocytes; type: cell-based
Experimental: Cell lines were purchased from ATCC and subcultured for no more than passage 15, except for human podocytes, which were originally from Dr Jochen Reiser. Conditionally immortalized human podocytes were cultured under permissive conditions at 33 °C, in RPMI medium (Corning) containing 10% FBS (GIBCO), 1% penicillin/streptomycin, 0.01 mg/ml recombinant human insulin, 0.0055 mg/ml human transferrin (substantially iron-free), and 0.005 μg/ml sodium selenite (ITS, Corning). To induce differentiation, podocytes were cultured at 37 °C for 14 days in RPMI medium containing 10% FBS (GIBCO) and 1% penicillin/streptomycin. Differentiated podocytes were starved in RPMI-0.2% FBS for 18 h and then treated with 1 μM, 5 μM, and 10 μM of compounds freshly prepared in DMSO for 18 h at 37 °C as indicated.
Human podocytes differentiated for 13 days were labeled for 24 h at 37 °C in RPMI medium containing 2% FBS and [^3H]-cholesterol (1 μCi/ml, American Radiolabeled Chemicals). Cells were then washed 3 times with PBS and incubated with RPMI supplemented with 0.2% fat free-BSA (Sigma) with or without compounds for 18-h at 37 °C. The compounds were used at the following concentrations: Cpd C (1 μM), Cpd A (1 μM, 5 μM) and Cpd G (1 μM, 5 μM, 10 μM). Following the 18-h incubation, human apoAI (Calbiochem) was added to the media, (20 μg/mL final concentration) and the cells were incubated for another 18 h at 37 °C. Aliquots of medium collected before (T = 0 h) and after (T = 18 h) the addition of apoAI were centrifuged at 12,000 × g for 5 min and the radioactivity in the supernatant was counted by liquid scintillation. Cells were then washed with PBS, lysed 0.1% SDS, 0.1M NaOH and the radioactivity in the lysates was quantified by liquid scintillation. apoAI-mediated cholesterol efflux, expressed as %, was calculated as the amount of label released to the medium after adding apoAI (the difference in radioactivity in the medium before and after adding ApoA1) divided by the amount of total label in each well (radioactivity released to the media plus radioactivity in the lysed cells).

Cc1oc(-c2cccc(C(F)(F)F)c2)nc1Cn1c(C)cc2cc(C(O)(C(F)(F)F)C(F)(F)F)ccc21 [Cpd C, reference compound]
Body Weight ([1]; 0 days after inj): 20 grams and 18 grams (2×) and 19 grams (2×) | ACR in spot urine ([1]; 7 days after inj): 0.033 mg Albumin/ mg Creatinine in urine and 0.087 mg Albumin/ mg Creatinine in urine and 0.021 mg Albumin/ mg Creatinine in urine and 0.039 mg Albumin/ mg Creatinine in urine and 0.361 mg Albumin/ mg Creatinine in urine | Body Weight ([1]; 7 days after inj): 19 grams (2×) and 17 grams and 18 grams (2×) | ACR in spot urine ([1]; 14 days after inj): 43.998 mg Albumin/ mg Creatinine in urine and 97.732 mg Albumin/ mg Creatinine in urine and 170.881 mg Albumin/ mg Creatinine in urine and 0.773 mg Albumin/ mg Creatinine in urine and 96.907 mg Albumin/ mg Creatinine in urine | Body Weight ([1]; 14 days after inj): 18 grams (2×) and 15 grams and 17 grams (2×) | ACR in spot urine ([1]; 21 days after inj): 110.345 mg Albumin/ mg Creatinine in urine and 164.518 mg Albumin/ mg Creatinine in urine and 91.2 mg Albumin/ mg Creatinine in urine and 9.219 mg Albumin/ mg Creatinine in urine and 93.57 mg Albumin/ mg Creatinine in urine | Body Weight ([1]; 21 days after inj): 18 grams (2×) and 13 grams and 19 grams and 16 grams | ACR in spot urine ([1]; 28 days after inj): 28.989 mg Albumin/ mg Creatinine in urine and 87.25 mg Albumin/ mg Creatinine in urine and 19.88 mg Albumin/ mg Creatinine in urine and 5.463 mg Albumin/ mg Creatinine in urine and 97.01 mg Albumin/ mg Creatinine in urine | Body Weight ([1]; 28 days after inj): 19 grams (2×) and 13 grams and 20 grams and 16 grams | KIDNEY CORTEX TOTAL CHOLESTEROL ([2]; ADR model, individual animals): 169.86 nmol Chol./mg protein and 129.15 nmol Chol./mg protein and 254.63 nmol Chol./mg protein and 268.95 nmol Chol./mg protein and 152.74 nmol Chol./mg protein and 180.44 nmol Chol./mg protein and 182.39 nmol Chol./mg protein and 272.02 nmol Chol./mg protein and 254.98 nmol Chol./mg protein | KIDNEY CORTEX TRIGLYCERIDES ([2]; ADR model, individual animals): 43.01 nmol Triglyceride /mg protein and 83.04 nmol Triglyceride /mg protein and 58.7 nmol Triglyceride /mg protein and 29.67 nmol Triglyceride /mg protein and 36.87 nmol Triglyceride /mg protein and 243.76 nmol Triglyceride /mg protein and 196.92 nmol Triglyceride /mg protein and 133.68 nmol Triglyceride /mg protein and 574.71 nmol Triglyceride /mg protein | Animals with higher triglyceride content in kidney cortexes ([2]; ADR, Cpd C 10 mg/Kg): about 30% | BUN, QR(25) ([3]; 25th quartile): 16 mg/dL | sCre, QR(25) ([3]; 25th quartile): 0.09 mg/dL | BUN, QR(75) ([3]; 75th quartile): 20 mg/dL | sCre, QR(75) ([3]; 75th quartile): 0.16 mg/dL | BUN, Max ([3]; group maximum): 51 mg/dL | sCre, Max ([3]; group maximum): 0.47 mg/dL | BUN, Median ([3]; group median): 17 mg/dL | sCre, Median ([3]; group median): 0.12 mg/dL | BUN, Min ([3]; group minimum): 13 mg/dL | sCre, Min ([3]; group minimum): 0.09 mg/dL | Blood Urea nitrogen (BUN) ([3]; individual mouse values): 13 mg/dL and 32 mg/dL and 18 mg/dL and 16 mg/dL and 20 mg/dL and 51 mg/dL and 17 mg/dL | Serum Creatinine sCre ([3]; individual mouse values): 0.16 mg/dL and 0.47 mg/dL and 0.12 mg/dL and 0.09 mg/dL and 0.29 mg/dL and 0.14 mg/dL | ApoA1-mediated cholesterol efflux (%) in podocytes (human podocytes; 1 uM, single experiments): 4.5% and 5% and 2.7% and 7.8% and 4.9% and 4.1% and 8.1% | Increase in apoAI-mediated cholesterol efflux vs. untreated cells (human podocytes; Cpd G 10 µM, Cpd A 5 µM, Cpd C 1 µM): ~2 fold

Source: PMC8329197, “Compounds targeting OSBPL7 increase ABCA1-dependent cholesterol efflux preserving kidney function in two models of kidney disease” (Nature Communications, 2021)
